In ChEMBL document CHEMBL4152230, “Discovery of N-{3-[(ethanimidoylamino)methyl]benzyl}-l-prolinamide dihydrochloride: A new potent and selective inhibitor of the inducible nitric oxide synthase as a promising agent for the therapy of malignant glioma” (Eur J Med Chem, 2018):
Calls of active or inactive are those of the source. The calls are words filed in the database; no cut-off is given here.

Assays:
[1] = biological target: T1, Nitric oxide synthase, inducible (Mus musculus, UniProt P29477); test: Inhibition of recombinant mouse iNOS using [3H]L-arginine as substrate preincubated for 15 mins followed by NADPH addition measured after 20 mins in presence of FMN/FAD by liquid scintillation counting method
T1 sequence (P29477 whole entry): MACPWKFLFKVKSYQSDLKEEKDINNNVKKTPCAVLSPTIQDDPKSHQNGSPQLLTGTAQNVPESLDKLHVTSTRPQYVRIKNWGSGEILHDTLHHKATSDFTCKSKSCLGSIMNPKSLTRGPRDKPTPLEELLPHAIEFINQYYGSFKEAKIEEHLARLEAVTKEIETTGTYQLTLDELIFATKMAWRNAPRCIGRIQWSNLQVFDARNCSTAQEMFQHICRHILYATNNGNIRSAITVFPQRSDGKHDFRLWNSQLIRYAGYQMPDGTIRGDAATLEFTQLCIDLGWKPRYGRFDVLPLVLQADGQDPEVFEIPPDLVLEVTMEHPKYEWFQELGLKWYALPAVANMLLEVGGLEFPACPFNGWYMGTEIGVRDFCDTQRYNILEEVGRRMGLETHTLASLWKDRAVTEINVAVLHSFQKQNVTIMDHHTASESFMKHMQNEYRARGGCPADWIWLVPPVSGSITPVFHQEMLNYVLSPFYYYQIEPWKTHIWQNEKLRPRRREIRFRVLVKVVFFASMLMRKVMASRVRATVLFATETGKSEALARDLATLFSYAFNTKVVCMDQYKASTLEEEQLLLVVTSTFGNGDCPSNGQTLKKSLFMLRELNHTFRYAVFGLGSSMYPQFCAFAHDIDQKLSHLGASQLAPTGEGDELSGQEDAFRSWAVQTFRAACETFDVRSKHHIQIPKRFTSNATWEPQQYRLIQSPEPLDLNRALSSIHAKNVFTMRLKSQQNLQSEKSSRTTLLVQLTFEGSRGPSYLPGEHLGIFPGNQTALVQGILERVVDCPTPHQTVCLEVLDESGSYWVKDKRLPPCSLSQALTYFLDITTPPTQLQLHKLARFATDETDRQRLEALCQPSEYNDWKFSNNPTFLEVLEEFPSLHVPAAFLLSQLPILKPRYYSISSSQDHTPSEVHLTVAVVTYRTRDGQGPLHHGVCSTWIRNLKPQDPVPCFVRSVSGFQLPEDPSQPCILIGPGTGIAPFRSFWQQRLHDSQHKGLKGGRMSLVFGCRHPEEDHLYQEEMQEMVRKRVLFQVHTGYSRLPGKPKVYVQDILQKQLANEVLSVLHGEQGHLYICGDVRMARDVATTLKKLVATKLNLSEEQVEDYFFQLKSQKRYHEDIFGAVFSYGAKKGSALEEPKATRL

C6 [2] = test: Cytotoxicity against rat C6 cells assessed as inhibition of cell proliferation after 24 to 48 hrs by MTT assay; type: functional, cell-based
[3] = Cytotoxicity against rat CTX/TNA2 cells assessed as inhibition of cell proliferation up to 72 hrs by MTT assay; type: cell-based
[4] = Cytotoxicity against rat CTX/TNA2 cells assessed as inhibition of cell proliferation at 2 mM after 24 hrs by MTT assay relative to control; type: cell-based
C6 [5] = test: Cytotoxicity against rat C6 cells assessed as cell proliferation at 0.75 mM after 72 hrs by MTT assay relative to control; type: functional; conditions: C6, 72 h, read-out: Activity
[6] = Cytotoxicity against rat CTX/TNA2 cells assessed as inhibition of cell proliferation at 1.5 mM after 24 hrs by MTT assay relative to control; type: cell-based
C6 [7] = test: Cytotoxicity against rat C6 cells assessed as cell proliferation at 0.5 mM after 48 hrs by MTT assay relative to control; type: functional; conditions: C6, 48 h, read-out: Activity
C6 [8] = test: Cytotoxicity against rat C6 cells assessed as cell proliferation at 2 mM after 24 hrs by MTT assay relative to control; type: functional; conditions: C6, 24 h, read-out: Activity
C6 [9] = test: Cytotoxicity against rat C6 cells assessed as cell proliferation at 1.5 mM after 24 hrs by MTT assay relative to control; type: functional; conditions: C6, 24 h, read-out: Activity
C6 [10] = test: Cytotoxicity against rat C6 cells assessed as cell proliferation up to 2 mM after 48 hrs by MTT assay relative to control; type: functional
C6 [11] = test: Cytotoxicity against rat C6 cells assessed as cell proliferation at 1 mM after 24 hrs by MTT assay relative to control; type: functional; conditions: C6, 24 h, read-out: Activity
C6 [12] = test: Cell cycle arrest in rat C6 cells assessed as accumulation at G1 phase at 1.5 mM after 72 hrs by propidium iodide staining based flow cytometry (reference value: 63.97%); type: functional
[13] = Cytotoxicity against rat CTX/TNA2 cells assessed as cell proliferation at 1 mM after 24 hrs by MTT assay relative to control; type: cell-based; conditions: read-out: Activity
C6 [14] = test: Cytotoxicity against rat C6 cells assessed as LDH release at 1 mM after 72 hrs by CytoTox96 non-radioactive assay (reference value: 5.41%); type: functional
C6 [15] = test: Cytotoxicity against rat C6 cells assessed as cell proliferation at 0.25 mM after 48 hrs by MTT assay relative to control; type: functional; conditions: C6, 48 h, read-out: Activity
C6 [16] = test: Cytotoxicity against rat C6 cells assessed as LDH release at 1.5 mM after 72 hrs by CytoTox96 non-radioactive assay (reference value: 5.41%); type: functional
[17] = Cytotoxicity against rat CTX/TNA2 cells assessed as inhibition of cell proliferation at 0.25 to 2 mM up to 72 hrs by MTT assay; type: cell-based; conditions: 2000 µM
C6 [18] = test: Cytotoxicity against rat C6 cells assessed as LDH release at 0.5 mM after 72 hrs by CytoTox96 non-radioactive assay (reference value: 5.41%); type: functional
[19] = Half life in pH 9 NaOH solution after 24 hrs by HPLC analysis; type: physicochemical; conditions: pH 9, pH 9
[20] = Half life in pH 7.4 PBS buffer after 24 hrs by HPLC analysis; type: physicochemical; conditions: pH 7.4, pH 7.4
[21] = Selectivity ratio of IC50 for recombinant rat nNOS to IC50 for recombinant mouse iNOS
[22] = Selectivity index, ratio of IC50 for recombinant bovine eNOS to IC50 for recombinant mouse iNOS
C6 [23] = test: Cytotoxicity against rat C6 cells assessed as LDH release at 0.75 mM after 72 hrs by CytoTox96 non-radioactive assay (reference value: 5.41%); type: functional
C6 [24] = test: Cell cycle arrest in rat C6 cells assessed as accumulation at S phase at 1.5 mM after 72 hrs by propidium iodide staining based flow cytometry (reference value: 22.64%); type: functional
[25] = Half life in human plasma by HPLC analysis; type: ADME, cell-free
C6 [26] = test: Cytotoxicity against rat C6 cells assessed as cell proliferation at 1 mM after 72 hrs by MTT assay relative to control; type: functional; conditions: C6, 72 h, read-out: Activity
C6 [27] = test: Cytotoxicity against rat C6 cells assessed as cell proliferation at 2 mM after 72 hrs by MTT assay relative to control; type: functional; conditions: C6, 72 h, read-out: Activity
C6 [28] = test: Cytotoxicity against rat C6 cells assessed as LDH release at 0.25 mM after 72 hrs by CytoTox96 non-radioactive assay (reference value: 5.41%); type: functional
[29] = biological target: Nitric oxide synthase, inducible (Rattus norvegicus) (UniProt Q06518); test: Ex vivo inhibition of iNOS in mesenteric vascular arteries isolated from LPS-induced septic shock Sprague-Dawley rat model assessed as increase in noradrenaline-mediated vasoconstriction by measuring changes in perfusion pressure at 0.06 uM preincubated for 30 mins followed by noradrenaline treatment
Chain of Nitric oxide synthase, inducible (Rattus norvegicus) (Q06518 whole entry, the tested form may be a part): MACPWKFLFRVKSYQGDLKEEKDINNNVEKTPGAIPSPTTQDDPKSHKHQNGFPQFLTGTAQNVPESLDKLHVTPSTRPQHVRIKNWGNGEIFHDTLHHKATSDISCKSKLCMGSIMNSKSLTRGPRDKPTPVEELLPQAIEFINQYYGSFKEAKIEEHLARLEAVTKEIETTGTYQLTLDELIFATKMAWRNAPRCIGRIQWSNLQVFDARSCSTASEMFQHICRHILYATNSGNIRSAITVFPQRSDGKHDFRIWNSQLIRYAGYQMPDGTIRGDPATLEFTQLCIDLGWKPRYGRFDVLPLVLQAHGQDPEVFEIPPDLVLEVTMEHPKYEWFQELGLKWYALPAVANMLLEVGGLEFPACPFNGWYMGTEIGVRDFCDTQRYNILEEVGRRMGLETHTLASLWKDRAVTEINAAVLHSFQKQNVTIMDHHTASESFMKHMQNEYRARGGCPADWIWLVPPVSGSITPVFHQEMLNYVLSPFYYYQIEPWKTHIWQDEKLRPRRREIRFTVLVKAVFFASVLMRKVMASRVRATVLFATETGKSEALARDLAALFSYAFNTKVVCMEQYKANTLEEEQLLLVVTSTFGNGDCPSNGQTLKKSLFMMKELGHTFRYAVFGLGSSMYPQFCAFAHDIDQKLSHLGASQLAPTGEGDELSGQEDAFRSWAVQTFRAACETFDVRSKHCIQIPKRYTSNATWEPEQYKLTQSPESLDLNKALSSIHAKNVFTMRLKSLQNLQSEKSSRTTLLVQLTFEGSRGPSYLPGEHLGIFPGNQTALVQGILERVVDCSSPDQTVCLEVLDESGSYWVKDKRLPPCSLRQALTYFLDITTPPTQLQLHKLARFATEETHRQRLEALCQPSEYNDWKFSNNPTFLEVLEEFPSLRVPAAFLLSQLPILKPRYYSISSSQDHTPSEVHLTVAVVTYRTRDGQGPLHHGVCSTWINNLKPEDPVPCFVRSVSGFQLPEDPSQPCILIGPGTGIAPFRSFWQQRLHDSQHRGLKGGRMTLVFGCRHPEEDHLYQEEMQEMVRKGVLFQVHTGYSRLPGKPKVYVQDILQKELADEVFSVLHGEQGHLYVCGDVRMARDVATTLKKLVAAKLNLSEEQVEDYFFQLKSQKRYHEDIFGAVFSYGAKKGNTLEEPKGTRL

C6 [30] = test: Cytotoxicity against rat C6 cells assessed as LDH release at 2 mM after 72 hrs by CytoTox96 non-radioactive assay (reference value: 5.41%); type: functional
[31] = Cytotoxicity against rat CTX/TNA2 cells assessed as cell proliferation at 1 mM after 48 hrs by MTT assay relative to control; type: cell-based; conditions: read-out: Activity
Nitric oxide synthase 1 = Nitric oxide synthase 1 (Rattus norvegicus, UniProt P29476); test: Inhibition of recombinant rat nNOS using [3H]L-arginine as substrate preincubated for 15 mins followed by NADPH addition measured after 20 mins in presence of FMN/FAD by liquid scintillation counting method
Chain of Nitric oxide synthase 1 (P29476 whole entry): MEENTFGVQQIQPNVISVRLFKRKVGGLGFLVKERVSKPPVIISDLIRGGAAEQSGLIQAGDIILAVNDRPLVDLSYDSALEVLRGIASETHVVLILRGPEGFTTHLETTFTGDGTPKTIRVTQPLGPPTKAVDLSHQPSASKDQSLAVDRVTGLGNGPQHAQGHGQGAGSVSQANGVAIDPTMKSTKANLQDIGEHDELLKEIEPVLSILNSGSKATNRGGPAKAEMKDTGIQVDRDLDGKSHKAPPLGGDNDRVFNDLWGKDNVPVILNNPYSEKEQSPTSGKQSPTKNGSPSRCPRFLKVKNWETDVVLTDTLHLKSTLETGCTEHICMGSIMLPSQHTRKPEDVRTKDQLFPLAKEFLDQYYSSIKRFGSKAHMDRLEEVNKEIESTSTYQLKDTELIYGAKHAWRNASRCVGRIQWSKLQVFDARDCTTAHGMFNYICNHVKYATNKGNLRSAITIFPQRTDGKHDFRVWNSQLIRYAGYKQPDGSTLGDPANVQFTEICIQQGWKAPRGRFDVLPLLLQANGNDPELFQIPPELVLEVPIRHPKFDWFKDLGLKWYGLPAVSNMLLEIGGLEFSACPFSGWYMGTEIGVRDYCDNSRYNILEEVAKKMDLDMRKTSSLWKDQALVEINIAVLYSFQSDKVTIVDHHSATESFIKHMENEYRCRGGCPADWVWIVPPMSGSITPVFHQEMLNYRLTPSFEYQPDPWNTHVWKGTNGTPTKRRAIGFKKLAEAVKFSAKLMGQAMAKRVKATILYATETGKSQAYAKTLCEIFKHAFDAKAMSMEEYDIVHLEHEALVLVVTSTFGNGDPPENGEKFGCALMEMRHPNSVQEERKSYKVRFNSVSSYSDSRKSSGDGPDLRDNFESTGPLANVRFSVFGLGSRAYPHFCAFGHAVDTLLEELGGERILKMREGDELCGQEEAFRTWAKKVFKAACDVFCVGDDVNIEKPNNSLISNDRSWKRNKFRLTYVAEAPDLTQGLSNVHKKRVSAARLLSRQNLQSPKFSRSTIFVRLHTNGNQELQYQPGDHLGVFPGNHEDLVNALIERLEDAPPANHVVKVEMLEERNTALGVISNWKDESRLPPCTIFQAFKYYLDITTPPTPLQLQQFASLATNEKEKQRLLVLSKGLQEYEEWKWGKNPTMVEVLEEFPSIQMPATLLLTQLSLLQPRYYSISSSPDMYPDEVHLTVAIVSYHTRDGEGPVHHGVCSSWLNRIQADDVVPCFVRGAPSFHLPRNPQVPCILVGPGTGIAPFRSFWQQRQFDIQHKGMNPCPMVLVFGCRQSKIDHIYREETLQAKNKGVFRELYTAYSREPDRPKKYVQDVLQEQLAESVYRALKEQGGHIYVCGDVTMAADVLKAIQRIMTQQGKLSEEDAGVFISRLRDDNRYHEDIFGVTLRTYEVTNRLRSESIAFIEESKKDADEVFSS

[32] = Half life in pH 2 HCl after 24 hrs by HPLC analysis; type: physicochemical; conditions: HCl solution, pH 2, pH 2
Nitric oxide synthase 3 = biological target: T2, Nitric oxide synthase 3 (Bos taurus, UniProt P29473); test: Inhibition of recombinant bovine eNOS using [3H]L-arginine as substrate preincubated for 15 mins followed by NADPH addition measured after 20 mins in presence of FMN/FAD by liquid scintillation counting method
T2 sequence (P29473 whole entry): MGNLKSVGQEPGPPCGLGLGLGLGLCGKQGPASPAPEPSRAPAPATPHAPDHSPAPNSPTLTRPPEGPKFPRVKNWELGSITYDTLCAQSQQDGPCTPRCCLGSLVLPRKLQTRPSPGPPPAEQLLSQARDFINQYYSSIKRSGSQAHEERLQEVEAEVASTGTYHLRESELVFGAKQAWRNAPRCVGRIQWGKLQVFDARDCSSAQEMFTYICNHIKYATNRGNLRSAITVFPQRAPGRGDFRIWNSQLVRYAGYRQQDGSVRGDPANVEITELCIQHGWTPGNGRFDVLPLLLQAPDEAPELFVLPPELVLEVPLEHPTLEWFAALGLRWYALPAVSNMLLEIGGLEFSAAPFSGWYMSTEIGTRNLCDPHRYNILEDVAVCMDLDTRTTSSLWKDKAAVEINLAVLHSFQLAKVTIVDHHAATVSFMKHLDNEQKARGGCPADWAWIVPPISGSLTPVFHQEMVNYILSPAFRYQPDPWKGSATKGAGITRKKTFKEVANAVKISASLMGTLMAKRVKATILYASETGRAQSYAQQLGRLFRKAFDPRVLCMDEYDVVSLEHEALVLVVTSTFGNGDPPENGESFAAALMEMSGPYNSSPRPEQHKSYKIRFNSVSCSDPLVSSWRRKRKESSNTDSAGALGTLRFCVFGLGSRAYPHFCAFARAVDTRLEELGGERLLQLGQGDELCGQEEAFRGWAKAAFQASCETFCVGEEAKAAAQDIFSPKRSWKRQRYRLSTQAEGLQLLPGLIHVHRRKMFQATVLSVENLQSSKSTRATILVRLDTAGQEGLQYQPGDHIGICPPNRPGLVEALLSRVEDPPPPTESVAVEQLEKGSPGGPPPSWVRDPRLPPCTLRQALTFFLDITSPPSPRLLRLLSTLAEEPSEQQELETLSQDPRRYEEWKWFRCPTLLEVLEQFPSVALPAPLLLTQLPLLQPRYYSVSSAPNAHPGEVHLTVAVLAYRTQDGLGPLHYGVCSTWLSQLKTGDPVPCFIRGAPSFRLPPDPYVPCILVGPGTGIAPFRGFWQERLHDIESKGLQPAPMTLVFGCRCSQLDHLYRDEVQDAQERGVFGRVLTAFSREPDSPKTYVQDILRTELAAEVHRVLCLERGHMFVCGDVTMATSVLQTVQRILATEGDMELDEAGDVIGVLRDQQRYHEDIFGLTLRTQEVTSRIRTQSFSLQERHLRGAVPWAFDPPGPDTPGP

C6 [33] = test: Cytotoxicity against rat C6 cells assessed as cell proliferation at 1.5 mM after 72 hrs by MTT assay relative to control; type: functional; conditions: C6, 72 h, read-out: Activity

## CC(=N)NCc1cccc(CNC(=O)[C@@H](N)CCC(N)=O)c1
[1]
  IC50: > 10 µM

## CC(=N)NCc1cccc(CN)c1 [1400W]
C6 [2]
  inhibition: Dose-dependent effect
[3]
  Activity: Dose-dependent effect
[4]
  inhibition at 24 h, 2000 µM: 69.2%
C6 [5]
  growth at 750 µM: 64.6%
[6]
  inhibition at 24 h, 1500 µM: ≤ 67.4%
C6 [7]
  growth at 500 µM: 68.9%
C6 [8]
  growth at 2000 µM: 55.2%
C6 [9]
  growth at 1500 µM: 70.6%
C6 [10]
  Activity: 35.66%
C6 [11]
  growth at 1000 µM: 83.2%

## CC(=N)NCc1cccc(CNC(=O)[C@@H]2CCCN2)c1.Cl.Cl
C6 [12]
  Activity: 71.79%
[13]
  viability at 24 h, 1000 µM: 122%
C6 [2]
  inhibition: Dose-dependent effect
C6 [14]
  Activity: 16.78%
C6 [15]
  growth at 250 µM: 80.4%
C6 [16]
  Activity: 23.27%
[17]
  Activity: Non-Toxic
C6 [18]
  Activity: 27.21%
[1]
  IC50: 0.058 µM
[19]
  half-life: > 24 h
[20]
  half-life: > 24 h
[21]
  Ratio IC50: > 172
[22]
  Ratio IC50: 4570
C6 [23]
  Activity: 20.99%
C6 [24]
  Activity: 12.12%
[25]
  half-life: 11 h
C6 [26]
  growth at 1000 µM: 77.5%
C6 [27]
  growth at 2000 µM: 55.2%
C6 [28]
  Activity: 26.54%
C6 [8]
  growth at 2000 µM: ≤ 89.5%
C6 [9]
  growth at 1500 µM: 114%
[29]
  inhibition: Active
C6 [30]
  Activity: <=25.52%
[31]
  viability at 48 h, 1000 µM: 125%
Nitric oxide synthase 1
  IC50: > 10 µM
[32]
  half-life: > 24 h
Nitric oxide synthase 3
  IC50: 265 µM
C6 [11]
  growth at 1000 µM: 118%
C6 [33]
  growth at 1500 µM: 63.2%

## CC(=N)NCc1cccc(CNC(=O)[C@H](C)N)c1
[1]
  IC50: 0.276 µM
[22]
  Ratio IC50: > 3600
Nitric oxide synthase 3
  IC50: > 1000 µM

## CC(=N)NCc1cccc(CNC(=O)[C@@H](N)CS)c1
[1]
  IC50: > 10 µM

## CC(=N)NCc1cccc(CNC(=O)[C@@H](N)CCCCN)c1
[1]
  IC50: 0.446 µM
[22]
  Ratio IC50: 473
Nitric oxide synthase 3
  IC50: 211 µM

## CC(=N)NCc1cccc(CNC(=O)[C@@H](N)Cc2ccccc2)c1
[1]
  IC50: > 10 µM

## CC(=N)NCc1cccc(CNC(=O)[C@@H](N)CO)c1
[1]
  IC50: > 10 µM

## CC[C@H](C)[C@H](N)C(=O)NCc1cccc(CNC(C)=N)c1
[1]
  IC50: 0.17 µM
[22]
  Ratio IC50: > 5850
Nitric oxide synthase 3
  IC50: > 1000 µM

## CC(=N)NCc1cccc(CNC(=O)[C@@H](N)Cc2cnc[nH]2)c1
[1]
  IC50: 0.534 µM
[22]
  Ratio IC50: > 1870
Nitric oxide synthase 3
  IC50: > 1000 µM
